Source: EP0275515B1, “Aqueous pharmaceutical composition” (DAIICHI PHARMACEUTICAL CO., LTD., priority 1986, dated 1988)

What was measured:
[1] = Storage stability of aqueous solution (residual concentration); format: physicochemical; conditions: 0.5 w/v% aqueous solution, pH range of 3 to 10, stored at 60°C for 1 or 2 weeks
[2] = Acute toxicity in mice (intravenous LD50); conditions: mouse, in vivo, read-out: acute toxicity (LD₅₀, intravenous)
Description: It is to be noted that the acute toxicity of the S-compound in mice (LD₅₀, intravenous) is 244 mg/kg.

With `C[C@H]1COc2c(N3CCN(C)CC3)c(F)cc3c(=O)c(C(=O)O)cn1c23` [S-compound, S-(-)-9-fluoro-3-methyl-10-(4-methyl-1-piperazinyl)-7-oxo-2,3-dihydro-7H-pyrido[1,2,3-de][1,4]benzoxazine-6-carboxylic acid] the residual concentrations [1] was “stably remained without decomposition” and the LD50 [2] was 244 mg/kg.
